# Experimental data from paper PMC9231348, “Bio-Oriented Synthesis of Novel (S)-Flurbiprofen Clubbed Hydrazone Schiff’s Bases for Diabetic Management: In Vitro and In Silico Studies” (Pharmaceuticals, 2022).
# Biological target: α-Glucosidase (E.C.3.2.1.20) (Saccharomyces cerevisiae, UniProt P53341)
# Assay: In vitro α-glucosidase inhibition assay
# Format: biochemical
# Description: α-Glucosidase (E.C.3.2.1.20) enzyme inhibition assay was developed by using 0.1 M phosphate buffer (pH 6.8) at 37 °C [39, 40, 41]. The enzyme (0.2 μ/mL) was incubated in phosphate-buffered saline with different concentrations of tested compounds at 37 °C for 15 min. […] Test compounds were substituted with DMSO-d6 (7.5% final) in the control. […] The % inhibition was calculated by using the following formula:
# % Inhibition = 100 − (OD test well/OD control) × 100.
# Sequence of α-Glucosidase (E.C.3.2.1.20) (P53341 whole entry): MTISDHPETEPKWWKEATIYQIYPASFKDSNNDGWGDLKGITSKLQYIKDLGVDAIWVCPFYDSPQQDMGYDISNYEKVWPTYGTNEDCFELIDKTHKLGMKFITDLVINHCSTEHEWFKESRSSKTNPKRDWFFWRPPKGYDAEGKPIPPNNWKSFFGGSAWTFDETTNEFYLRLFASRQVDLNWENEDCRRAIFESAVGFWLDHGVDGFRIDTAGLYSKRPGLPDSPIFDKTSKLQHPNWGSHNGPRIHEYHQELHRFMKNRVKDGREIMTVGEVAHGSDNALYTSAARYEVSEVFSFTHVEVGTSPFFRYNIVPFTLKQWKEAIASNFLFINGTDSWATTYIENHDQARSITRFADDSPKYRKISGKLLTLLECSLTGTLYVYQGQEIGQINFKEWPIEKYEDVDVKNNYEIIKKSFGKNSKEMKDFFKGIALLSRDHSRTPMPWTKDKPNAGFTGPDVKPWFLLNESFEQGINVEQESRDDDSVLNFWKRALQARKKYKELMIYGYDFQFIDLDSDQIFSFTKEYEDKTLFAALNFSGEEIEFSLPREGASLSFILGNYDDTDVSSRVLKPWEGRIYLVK
row,Compound,α-glucosidase inhibitory activity (in words)
1,"CC/C(=N\NC(=O)C(C)c1ccc(-c2ccccc2)c(F)c1)c1ccccc1 (centres unmarked) [Compound 5g, (E)-2-(2-Fluoro-[1,1′-biphenyl]-4-yl)-N′-(1-phenylpropylidene)propanehydrazide]",moderate-to-low activities
2,"C/C(=N\NC(=O)C(C)c1ccc(-c2ccccc2)c(F)c1)c1ccccc1 (centres unmarked) [Compound 5f, (E)-2-(2-Fluoro-[1,1′-biphenyl]-4-yl)-N′-(1-phenylethylidene)propanehydrazide]",moderate-to-low activities
3,"CCC/C=N/NC(=O)C(C)c1ccc(-c2ccccc2)c(F)c1 (centres unmarked) [Compound 4k, (E)-N′-Butylidene-2-(2-fluoro-[1,1′-biphenyl]-4-yl)propanehydrazide]",moderate-to-low activities
4,"CC(C(=O)N/N=C/c1cccc2ccccc12)c1ccc(-c2ccccc2)c(F)c1 (centres unmarked) [Compound 4n, (E)-2-(2-Fluoro-[1,1′-biphenyl]-4-yl)-N′-(naphthalen-1-ylmethylene)propanehydrazide]",moderate-to-low activities
5,"COc1ccc(/C=N/NC(=O)C(C)c2ccc(-c3ccccc3)c(F)c2)cc1O (centres unmarked) [Compound 4f, (E)-2-(2-Fluoro-[1, 1′-biphenyl]-4-yl)-N′-(3-hydroxy-4-methoxybenzylidene)propanehydrazide]",moderate-to-low activities

# Test system: not given
# Assay: not given
row,Compound,melting point
1,"CCCCC/C=N/NC(=O)C(C)c1ccc(-c2ccccc2)c(F)c1 (centres unmarked) [Compound 4l, (E)-2-(2-Fluoro-[1, 1′-biphenyl]-4-yl)-N′-hexylidenepropanehydrazide]",129 to 130 °C
2,"CCC/C(=N\NC(=O)C(C)c1ccc(-c2ccccc2)c(F)c1)c1ccccc1 (centres unmarked) [Compound 5k, (E)-2-(2-Fluoro-[1,1′-biphenyl]-4-yl)-N′-(1-phenylbutylidene)propanehydrazide]",183 °C
3,"CC/C(=N\NC(=O)C(C)c1ccc(-c2ccccc2)c(F)c1)c1ccccc1 (centres unmarked) [Compound 5g, (E)-2-(2-Fluoro-[1,1′-biphenyl]-4-yl)-N′-(1-phenylpropylidene)propanehydrazide]",179 °C
4,"C/C(=N\NC(=O)C(C)c1ccc(-c2ccccc2)c(F)c1)c1ccc(O)cc1 (centres unmarked) [Compound 5a, (E)-2-(2-Fluoro-[1,1′-biphenyl]-4-yl)-N′-(1-(4-hydroxyphenyl)ethylidene)propanehydrazide]",152 °C
5,"COc1ccccc1/C=N/NC(=O)C(C)c1ccc(-c2ccccc2)c(F)c1 (centres unmarked) [Compound 4m, (E)-2-(2-Fluoro-[1,1′-biphenyl]-4-yl)-N′-(2-methoxybenzylidene)propanehydrazide]",131 to 132 °C
6,"CCOc1cc(/C=N/NC(=O)C(C)c2ccc(-c3ccccc3)c(F)c2)ccc1O (centres unmarked) [Compound 4j, (E)-N′-(3-Ethoxy-4-hydroxybenzylidene)-2-(2-fluoro-[1,1′-biphenyl]-4-yl)propanehydrazide]",173 to 174 °C
7,"CC(C(=O)N/N=C/c1cccc([N+](=O)[O-])c1)c1ccc(-c2ccccc2)c(F)c1 (centres unmarked) [Compound 4b, (E)-2-(2-Fluoro-[1,1′-biphenyl]-4-yl)-N′-(3-nitrobenzylidene)propanehydrazide]",145 to 147 °C
8,"COc1cccc(/C=N/NC(=O)C(C)c2ccc(-c3ccccc3)c(F)c2)c1O (centres unmarked) [Compound 4d, (E)-2-(2-Fluoro-[1,1′-biphenyl]-4-yl)-N′-(2-hydroxy-3-methoxybenzylidene)propanehydrazide]",154 to 155 °C
9,"C/C(=N\NC(=O)C(C)c1ccc(-c2ccccc2)c(F)c1)c1ccccc1 (centres unmarked) [Compound 5f, (E)-2-(2-Fluoro-[1,1′-biphenyl]-4-yl)-N′-(1-phenylethylidene)propanehydrazide]",181 °C
10,"CCN(CC)c1ccc(/C=N/NC(=O)C(C)c2ccc(-c3ccccc3)c(F)c2)cc1 (centres unmarked) [Compound 4e, (E)-N′-(4-(Diethylamino)benzylidene)-2-(2-fluoro-[1,1′-biphenyl]-4-yl)propanehydrazide]",144 to 145 °C
11,"CC(C(=O)NN=Cc1cc(Br)c(O)c(Br)c1)c1ccc(-c2ccccc2)c(F)c1 (centres unmarked) [Compound 4i, (E)-N′-(3,5-Dibromo-4-hydroxybenzylidene)-2-(2-fluoro-[1,1′-biphenyl]-4-yl)propane hydrazide]",161 to 162 °C
12,"C/C(=N\NC(=O)C(C)c1ccc(-c2ccccc2)c(F)c1)C1CC1 (centres unmarked) [Compound 5j, (E)-N′-(1-Cyclopropylethylidene)-2-(2-fluoro-[1,1′-biphenyl]-4-yl)propanehydrazide]",160 °C
13,"CC(C(=O)N/N=C/c1ccc(O)cc1O)c1ccc(-c2ccccc2)c(F)c1 (centres unmarked) [Compound 4c, (E)-N′-(2,4-Dihydroxybenzylidene)-2-(2-fluoro-[1,1′-biphenyl]-4-yl)propanehydrazide]",133 to 135 °C
14,"C/C(=N\NC(=O)C(C)c1ccc(-c2ccccc2)c(F)c1)c1ccc([N+](=O)[O-])cc1 (centres unmarked) [Compound 5b, (E)-2-(2-Fluoro-[1,1′-biphenyl]-4-yl)-N′-(1-(4-nitrophenyl)ethylidene)propanehydrazide]",175 °C
15,"COc1ccc2c(c1)CCC/C2=N\NC(=O)C(C)c1ccc(-c2ccccc2)c(F)c1 (centres unmarked) [Compound 5c, (E)-2-(2-Fluoro-[1,1′-biphenyl]-4-yl)-N′-(6-methoxy-3,4-dihydronaphthalen-1(2H) -ylidene)propanehydrazide]",187 °C
16,"CC(C(=O)N/N=C/c1ccc(C(=O)O)cc1)c1ccc(-c2ccccc2)c(F)c1 (centres unmarked) [Compound 4p, (E)-4-((2-(2-(2-Fluoro-[1,1′-biphenyl]-4-yl)propanoyl)hydrazono)methyl)benzoic acid]",176 to 177 °C
17,"CCC/C=N/NC(=O)C(C)c1ccc(-c2ccccc2)c(F)c1 (centres unmarked) [Compound 4k, (E)-N′-Butylidene-2-(2-fluoro-[1,1′-biphenyl]-4-yl)propanehydrazide]",168 to 169 °C
18,"COc1cc(/C=N/NC(=O)C(C)c2ccc(-c3ccccc3)c(F)c2)cc(OC)c1OC (centres unmarked) [Compound 4a, (E)-2-(2-Fluoro-[1,1′-biphenyl]-4-yl)-N′-(3,4,5-trimethoxybenzylidene)propanehydrazide]",139 to 140 °C
19,"CC(C(=O)N/N=C/c1cccc2ccccc12)c1ccc(-c2ccccc2)c(F)c1 (centres unmarked) [Compound 4n, (E)-2-(2-Fluoro-[1,1′-biphenyl]-4-yl)-N′-(naphthalen-1-ylmethylene)propanehydrazide]",168 to 170 °C
20,"COc1ccccc1/C(C)=N/NC(=O)C(C)c1ccc(-c2ccccc2)c(F)c1 (centres unmarked) [Compound 5m, (E)-2-(2-Fluoro-[1,1′-biphenyl]-4-yl)-N′-(1-(2-methoxyphenyl)ethylidene)propanehydrazide]",198 °C
21,"CC(C(=O)N/N=C/c1cccc(Br)c1)c1ccc(-c2ccccc2)c(F)c1 (centres unmarked) [Compound 4h, (E)-N′-(3-Bromobenzylidene)-2-(2-fluoro-[1,1′-biphenyl]-4-yl)propanehydrazide]",147 to 148 °C
22,"CC(C(=O)NN=C1CCCCC1)c1ccc(-c2ccccc2)c(F)c1 (centres unmarked) [Compound 5l, N′-Cyclohexylidene-2-(2-fluoro-[1,1′-biphenyl]-4-yl)propanehydrazide]",177 °C
23,"CCCC/C(=N\NC(=O)C(C)c1ccc(-c2ccccc2)c(F)c1)c1ccccc1 (centres unmarked) [Compound 5i, (E)-2-(2-Fluoro-[1,1′-biphenyl]-4-yl)-N′-(1-phenylpentylidene)propanehydrazide]",165 °C
24,"COc1ccc(/C(C)=N/NC(=O)C(C)c2ccc(-c3ccccc3)c(F)c2)cc1 (centres unmarked) [Compound 5n, (E)-2-(2-Fluoro-[1,1′-biphenyl]-4-yl)-N′-(1-(4-methoxyphenyl)ethylidene)propanehydrazide]",192 °C
25,"CC(C(=O)N/N=C/c1ccc(Br)cc1F)c1ccc(-c2ccccc2)c(F)c1 (centres unmarked) [Compound 4g, (E)-N′-(4-Bromo-2-fluorobenzylidene)-2-(2-fluoro-[1,1′-biphenyl]-4-yl)propanehydrazide]",166 to 168 °C
26,"CC(C)/C(=N\NC(=O)C(C)c1ccc(-c2ccccc2)c(F)c1)c1ccccc1 (centres unmarked) [Compound 5h, (E)-2-(2-Fluoro-[1,1′-biphenyl]-4-yl)-N′-(2-methyl-1-phenylpropylidene)propanehydrazide]",177 °C
27,"COc1ccc(/C=N/NC(=O)C(C)c2ccc(-c3ccccc3)c(F)c2)cc1O (centres unmarked) [Compound 4f, (E)-2-(2-Fluoro-[1, 1′-biphenyl]-4-yl)-N′-(3-hydroxy-4-methoxybenzylidene)propanehydrazide]",126 to 127 °C
